Experimental data reported in patent publication US6380161B1, “Compositions for treating chemotherapy-resistant tumor cells and targeted chemotherapy compositions” (priority 1999, dated 2002).
“Also recorded” adds a separate entry of the source. Where two headings read alike, the source gives them in different places. Residues, ends and D or L forms follow the SMILES beside them. No end group written: not given here. *: point of attachment. X1 = COc1cccc2c1C(=O)c1c(O)c3c(c(O)c1C2=O)CC(O)(C(=O)CO)C[C@@H]3O[C@H]1C[C@H](N*)[C@H](O)[C@H](C)O1; Acm = CC(=O)NC*

How the values were obtained:
B16-F10 Melanoma = test: In vitro LD50 from dose response curves (ALAMAR BLUE cell viability); assay type: cell-based; conditions: dose at which half of the cells die
Lewis Lung Carcinoma = test: as above; assay type: cell-based; conditions: dose at which half of the cells die
Human Breast Carcinoma = test: as above; assay type: cell-based; conditions: dose at which half of the cells die
Wild-type CHO Cells = test: Cell viability / in vitro LD50 on wild-type CHO cells (ALAMAR BLUE); assay type: cell-based
Description: (§1) Doxorubicin and multidrug-resistant CHO cells were cultured using standard tissue culture conditions: 37° C., DMEM media, serum free conditions, with 5% CO2 for pH adjustment. The cells were treated for 24 hours with either doxorubicin or Dox-P, the peptide conjugate prepared in Example 1, at concentrations of 0.25, 0.5, 0.75, and 1.0 mM. Untreated cells were used as a negative control.
Cell viability was measured using the ALAMAR BLUE™ assay (available from Biosource International, Camarillo, Calif.). The assay quantitatively measures the proliferation of cell lines and can establish the relative cytotoxicity of chemical agents. The assay incorporates a fluorometric/colorimetric growth indicator based on detection of metabolic activity. The system incorporates an oxidation-reduction (redox) indicator that both fluoresces and changes color in response to chemical reduction of growth medium resulting from cell growth. This causes the redox indicator to change from its oxidized, non-fluorescent, blue form to its reduced, fluorescent, red form. Data can be collected using either fluorescence-based instrumentation (530-560 nm excitation wavelength and 590 nm emission wavelength) or absorbance-based instrumentation (570 nm and 600 nm). […]
The LD50, the dose at which half of the cells die, was calculated from Dox and Dox-P dose response curves for five different cell lines, as shown in Table 1.

[1] = system: Doxorubicin and multidrug-resistant CHO Cells; test: Cell viability / in vitro LD50 on drug-resistant CHO cells (ALAMAR BLUE); assay type: cell-based; conditions: 24 hours, 0.25, 0.5, 0.75 and 1.0 mM
Description: as §1
Cell viability was measured using the ALAMAR BLUE™ assay (available from Biosource International, Camarillo, Calif.). The assay quantitatively measures the proliferation of cell lines and can establish the relative cytotoxicity of chemical agents. The assay incorporates a fluorometric/colorimetric growth indicator based on detection of metabolic activity. The system incorporates an oxidation-reduction (redox) indicator that both fluoresces and changes color in response to chemical reduction of growth medium resulting from cell growth. This causes the redox indicator to change from its oxidized, non-fluorescent, blue form to its reduced, fluorescent, red form. Data can be collected using either fluorescence-based instrumentation (530-560 nm excitation wavelength and 590 nm emission wavelength) or absorbance-based instrumentation (570 nm and 600 nm).

Melanoma tumor cells = test: Melanoma tumor development (lung tumor colonies) in mice; assay type: in vivo; conditions: intraperitoneally 24 and 96 hours after tumor implantation, 18 μM/kg, versus buffer
Description: This experiment was designed to evaluate whether the conjugation of the peptide to doxorubicin altered its ability to prevent wild-type, nonresistant tumor development in mice. Melanoma tumor cells were injected into mice. The animals (5 in each group) were treated intraperitoneally 24 and 96 hours after tumor implantation with either buffer alone, Dox-P, the Cys(Acm)-Ser-Val-Thr-Cys(Acm)-Gly (SEQ ID NO: 6) peptide, or Dox, at a concentration of 18 μM/kg. The mice were sacrificed and the melanoma tumor colonies on the lung were counted. […] Additionally, the tumor colonies in the Dox-P and the Dox groups were 2-5 fold smaller than in the buffer group.

B16-F10 melanoma cells = test: Adhesion of B16-F10 melanoma cells to coated wells; assay type: cell-based; conditions: wells covered with 40 μg/ml
Description: An adhesion study was performed to evaluate the adhesion of B16-F10 melanoma cells (a nonresistant cell line) to doxorubicin and the doxorubicin-peptide conjugate of Example 1. In a 96 well plate, duplicate wells were covered with 40 μg/ml either TSP, Dox-P, the Cys(Acm)-Ser-Val-Thr-Cys(Acm)-Gly (SEQ ID NO: 6) peptide, Dox, the scrambled peptide Val-Cys-Thr-Gly-Ser-Cys (SEQ ID NO: 3), the Cys(Acm)Ser-Val-Thr-Cys-(Acm)-Gly (SEQ ID NO: 6) peptide with a d orientation, or 1% bovine serum albumin (BSA). The wells were dried out overnight and then blocked with BSA. 100 μl of a suspension containing 2×10^5 B16-F-10 melanoma cells were plated in the protein covered wells and incubated at 37° C. for 20 minutes to 1 hour. The non-adherent cells were removed and the wells were washed with a Hepes buffer. The adherent cells were fixed with 2.5% glutaraldehyde for 10 minutes and stained with 0.2% Giemsa. The stain was washed off and the cells were counted in a field of 1 mm square. Cells adhering to BSA were considered background.

[2] = system: Doxorubicin and multidrug-resistant CHO Cells; test: Coadministration of peptides and doxorubicin on resistant CHO cells; assay type: cell-based; conditions: peptide coadministered with doxorubicin, not linked
Description: Doxorubicin and multidrug-resistant CHO cells were treated with a 7 coadministration of peptides and doxorubicin. In this example the peptides were not linked to the doxorubicin, but were only administered at the same time.

[3] = mice, 68 mg/kg (same number of doxorubicin molecules as Dox 30 mg/kg), 3 mice treated

COc1cccc2c1C(=O)c1c(O)c3c(c(O)c1C2=O)C[C@@](O)(C(=O)CO)C[C@@H]3O[C@H]1C[C@H](N)[C@H](O)[C@H](C)O1 [Dox, doxorubicin, reference compound]
In Vitro LD50 (B16-F10 Melanoma): 0.30 mM
In Vitro LD50 (Lewis Lung Carcinoma): 0.20 mM
In Vitro LD50 (Human Breast Carcinoma): 1.0 mM
In Vitro LD50 (Wild-type CHO Cells; Wild-type CHO Cells, dose at which half of the cells die): 1.0 mM
Effect on drug-resistant CHO cell viability (dose response) [1]: negligible effect
Melanoma tumor development (number of lung tumor colonies / lung metastasis) (Melanoma tumor cells): inhibit the development of lung metastasis; also recorded: effective at preventing tumor development
Toxicity Results: survival (mice, 30 mg/kg, 3 mice treated): 3 mice died^1
Toxicity Results: body weight change (mouse, in vivo, 30 mg/kg): significant weight loss

COc1cccc2c1C(=O)c1c(O)c3c(c(O)c1C2=O)CC(O)(C(=O)CO)C[C@@H]3O[C@H]1C[C@H](NC(=O)CNC(=O)[C@H](CSCNC(C)=O)NC(=O)[C@@H](NC(=O)[C@@H](NC(=O)[C@H](CO)NC(=O)[C@H](CSCNC(C)=O)NC(C)=O)C(C)C)[C@@H](C)O)[C@H](O)[C@H](C)O1 (stereo partly drawn) [Dox-P] (Ac-C(Acm)SVTC(Acm)G-X1)
Effect on wild-type CHO cell viability (Wild-type CHO Cells; 24 hours, 0.25-1.0 mM, compared with Dox alone): appears to function more effectively against wild-type CHO cells than Dox alone
Effect on drug-resistant CHO cell viability (dose response) [1]: dramatic dose-response effect
Adhesion of B16-F10 melanoma cells (B16-F10 melanoma cells): does not destroy its adhesive activity
Melanoma tumor development (number of lung tumor colonies / lung metastasis) (Melanoma tumor cells): inhibit the development of lung metastasis; also recorded: effective at preventing tumor development
Toxicity Results: body weight change [3]: some small weight gain
Toxicity Results: survival [3]: 3 mice lived

ASVTAR
Effect of peptide on doxorubicin toxicity of resistant CHO cells [2]: shows a dose-response effect

Cys(Acm)-Ser-Val-Thr-Cys(Acm)-Gly (C(Acm)SVTC(Acm)G) [thrombospondin-derived hexapeptide with cysteine sulfur protected by acetamidomethyl (Acm) groups]
Melanoma tumor development (number of lung tumor colonies / lung metastasis) (Melanoma tumor cells): lower number of tumors than buffer alone
Melanoma tumor development (number of lung tumor colonies / lung metastasis) (Melanoma tumor cells; listed as peptide): inhibit the development of lung metastasis
Effect of peptide on doxorubicin toxicity of resistant CHO cells [2]: did not show any effect
